Test results as given in patent publication US10744128B2, “6-(5-membered heteroaryl)isoquinolin-3-yl-(5-membered heteroaryl) carboxamides and preparation and use thereof” (Samumed, LLC, priority 2017, dated 2020).
Read-outs that look alike come from different tables or passages of the source.

Tests used:
[1] = target: recombinant DYRK1A kinase (Homo sapiens (Human), UniProt Q13627); assay: DYRK1A kinase assay (Ser/Thr 18 peptide Z-lyte, FRET)
Experimental: Each compound was dissolved in DMSO as a 10 mM stock and used to prepare compound source plates.
This is a non-radioactive assay using fluorescence resonance energy transfer (FRET) between coumarin and fluorescein to detect kinase activity which is represented as a ratio of coumarin emission/fluorescein emission.
The mixture was allowed to incubate with the representative compounds for one hour at room temperature. All reactions were performed in duplicate. Unphosphorylated (“0% Control”) and phosphorylated (“100% control”) forms of Ser/Thr 18 served as control reactions. Additionally, an 11-point dose-response curve of Staurosporine (1 uM top) was run to serve as a positive compound control.
After incubation, Development Reagent A was diluted in Development Buffer then added to the reaction and allowed to further incubate for one hour at room temperature.
Dose-response curves were generated and inhibitory concentration (IC50) values were calculated using non-linear regression curve fit in the Dotmatics' Studies Software (Bishops Stortford, UK).

[2] = tested on: SW480 colon carcinoma cells; assay: Cell viability assay (CellTiter-Glo) in SW480 cells; format: cell-based, human; settings: Homo sapiens, 96 h, four days
Experimental: SW480 colon carcinoma cells were transduced with a lentiviral vector expressing luciferase with a human Sp5 promoter consisting of a sequence of eight TCF/LEF binding sites. SW480 cells stably expressing the Sp5-Luc reporter gene and a hygromycin resistance gene were selected by treatment with 150 µg/mL of hygromycin for 7 days. These stably transduced SW480 cells were expanded in cell culture and used for all further screening activities.
For the Cell Viability Assays, the cells were plated at 2,000 cells/well in 384-well plates with a DMEM medium containing 1% fetal bovine serum, and 1% Penicillin-Streptomycin and incubated for […] at 37° C. and 5% CO2. Eight replicates of DMSO-treated cells served as controls and cells treated with compound were performed in duplicate.
After incubation, 10 μL of CellTiter-Glo (Promega) was added to each well allowed to incubate for approximately 12 minutes. This reagent “results in cell lysis and generation of a luminescent signal proportional to the amount of ATP present. The amount of ATP is directly proportional to the number of cells present in culture, in agreement with previous reports. The CellTiter-Glo® Assay generates a “glow-type” luminescent signal, produced by the luciferase reaction (Promega.com)”.

recombinant GSK3β kinase = recombinant GSK3β kinase (Homo sapiens (Human), UniProt P49841); assay: GSK3β kinase assay (Ser/Thr 09 peptide Z-lyte, FRET); format: biochemical
[3] = tested on: Wnt-responsive promoter (Sp5-Luc reporter) in SW480 colon carcinoma cells; assay: Sp5-Luc reporter gene screening assay for Wnt activity in SW480 cells; format: cell-based, human; settings: Homo sapiens, 36 to 48 hours, luminescence
Text: The screening assay for Wnt activity is described as follows. Reporter cell lines can be generated by stably transducing cancer cell lines (e.g., colon cancer) or primary cells (e.g., IEC-6 intestinal cells) with a lentiviral construct that includes a Wnt-responsive promoter driving expression of the firefly luciferase gene.
SW480 colon carcinoma cells were transduced with a lentiviral vector expressing luciferase with a human Sp5 promoter consisting of a sequence of eight TCF/LEF binding sites. SW480 cells stably expressing the Sp5-Luc reporter gene and a hygromycin resistance gene were selected by treatment with 150 μg/mL of hygromycin for 7 days. These stably transduced SW480 cells were expanded in cell culture and used for all further screening activities. […] For Sp5-Luc reporter gene assays, the cells were plated at 4,000 cells/well in 384-well plates with a DMEM medium containing 1% fetal bovine serum, and 1% Penicillin-Streptomycin and incubated for 36 to 48 hours at 37° C. and 5% CO2. Following incubation, 15 μl of BriteLite Plus luminescence reagent (Perkin Elmer) was added to each well of the 384-well assay plates. The plates were placed on an orbital shaker for 2 min and then luminescence was quantified using the Envision (Perkin Elmer) plate reader. Readings were normalized to DMSO only treated cells, and normalized activities were utilized for EC50 calculations using the dose-response log (inhibitor) vs. response −variable slope (four parameters) nonlinear regression feature available in GraphPad Prism 5.0 (or Dotmatics).

IL-6 = IL-6 inhibition in LPS-stimulated human peripheral blood mononuclear cells (HTRF); format: cell-based; settings: Homo sapiens, PBMC; for EC50: huPBMCs, LPS 50 ng/mL, 22 hours, IL-6 HTRF; for inhibition at 10 µM: read-out: percent inhibition at 10 μM
Experimental: Fresh Normal PB MNC (Catalog # PB001, AllCells, Alameda, Calif.) were shipped overnight at 4° C. and resuspended in Roswell Park Memorial Institute (RPMI) 1640 Medium, with GlutaMAX Supplement (Catalog #61870127, ThermoFisher Scientific, Waltham, Mass.) supplemented with 1% Penicillin-Streptomycin (Catalog #15140163, ThermoFisher Scientific, Waltham, Mass.) and 1% fetal bovine serum (FBS) (Catalog #16140089, ThermoFisher Scientific, Waltham, Mass.) assay media.
Fresh normal human peripheral blood mononuclear cells (huPBMCs) were resuspended in 1% FBS-RPMI assay media with 1% Penicillin-Streptomycin 1% to a cell concentration of 1×10e6 cells/mL. […] 50 ng/mL of Lipopolysaccharides from Escherichia coli 0111:B4 (Catalog #L5293-2ML, Sigma-Aldrich, St. Louis, Mo.) was added after 2 hours and cells were incubated for another 22 hours at 37° C.-5% CO2. After 22 hour incubation, a mixture of anti-IL6 XL665 and anti-IL-6 Cryptate diluted in reconstitution buffer (Catalog #62IL6PEC, Cisbio Inc., Bedford, Mass.) was added to each well. Following incubation for 3 hours at room temperature, Homogeneous Time-Resolved Fluorescence (HTRF) was measured using the Envision (Perkin Elmer, Shelton, Conn.) at 665 nm and […]. The ratio of fluorescence at 665 nm to 620 nm was used as a readout for IL-6 quantification. All samples were processed in duplicate. Readings were normalized to DMSO treated cells and normalized activities were utilized for EC50 calculations. EC50 was determined using software generated by Dotmatics Limited (Windhill Bishops Stortford Herts, UK) using the Levenberg-Marquardt 4 parameter fitting procedure with finite different gradients.

[4] = tested on: primary human fibroblasts derived from IPF patients (LL29 cells), α-smooth muscle actin; assay: Inhibition of fibrotic process: αSMA in TGF-β1 treated LL29 fibroblasts; format: cell-based; settings: Homo sapiens, Fibroblast; for EC50: 96 h, LL29 cells, TGF-β1 20 ng/mL, 4 days, % cells positive for αSMA
Experimental: Representative compounds were screened using primary human fibroblasts (derived from IPF patients) treated with TGF-β1 to determine their ability to inhibit the fibrotic process.
LL29 cells were plated at 1,500 cells/well in 70 μL/well F12 medium supplemented with 1% Fetal Bovine Serum. […] Wells treated with TGF-β1 and containing DMSO were used as positive control, and cells with only DMSO were negative control. […] Following incubation for 4 days, SYTOX green nucleic acid stain (Life Technologies [Thermo Fisher Scientific]) was added to the wells at a final concentration of 1 μM and incubated at room temperature for 30 min.

[5] = DYRK1A kinase, 30 μM ATP, one hour, method calls values IC50
[6] = GSK3β kinase, 46 μM ATP, one hour, method calls values IC50

Chain of recombinant GSK3β kinase (P49841 whole entry): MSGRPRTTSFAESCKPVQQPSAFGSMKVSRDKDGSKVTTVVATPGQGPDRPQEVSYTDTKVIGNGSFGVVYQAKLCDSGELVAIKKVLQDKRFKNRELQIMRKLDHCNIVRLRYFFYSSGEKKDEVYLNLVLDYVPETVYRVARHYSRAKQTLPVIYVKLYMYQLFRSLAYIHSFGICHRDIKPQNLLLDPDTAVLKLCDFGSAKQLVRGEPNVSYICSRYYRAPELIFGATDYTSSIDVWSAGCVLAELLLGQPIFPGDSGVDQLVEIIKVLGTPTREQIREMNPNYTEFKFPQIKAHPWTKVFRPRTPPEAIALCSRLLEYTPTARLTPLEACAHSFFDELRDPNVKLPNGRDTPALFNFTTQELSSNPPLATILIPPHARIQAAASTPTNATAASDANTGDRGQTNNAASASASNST

EC50 [1, 5] [nM] | EC50 [2] [nM] | EC50 (recombinant GSK3β kinase; [6]) [nM] | EC50 [3] [nM] | EC50 (IL-6) [nM] | EC50 [1] [nM] | EC50 (recombinant GSK3β kinase) [nM] | SMILES | EC50 [4] [nM] | inhibition at 10 µM (IL-6) [%] | inhibition at 10 µM ([4]; read-out: percent inhibition at 10 μM) [%]
74 | 414 | 666 | 122 | 2640 | – | – | Cc1nnc(-c2ccc3cnc(NC(=O)c4coc(C5CCNCC5)n4)cc3c2)s1 [Compound 68, N-(6-(5-Methyl-1,3,4-thiadiazol-2-yl)isoquinolin-3-yl)-2-(piperidin-4-yl) oxazole-4-carboxamide] | 2580 | – | –
6 | 1810 | 1610 | 2550 | > 10000 | – | – | Cc1nc(C(=O)Nc2cc3cc(-c4cncn4C)ccc3cn2)cs1 [Compound 57, 2-Methyl-N-(6-(1-methyl-1H-imidazol-5-yl)isoquinolin-3-yl)thiazole-4-carboxamide] | 2830 | 19.6 | –
9 | 2960 | 4340 | 1310 | > 10000 | – | – | Cc1nnc(C(=O)Nc2cc3cc(-c4cncn4C)ccc3cn2)o1 [Compound 58, 5-Methyl-N-(6-(1-methyl-1H-imidazol-5-yl)isoquinolin-3-yl)-1,3,4-oxadiazole-2-carboxamide] | 1280 | 9.5 | –
4 | 46 | 390 | 34 | 893 | – | – | Cc1nnc(-c2ccc3cnc(NC(=O)c4cnn(C5CCN(C(C)C)CC5)c4)cc3c2)s1 [Compound 66, 1-(1-Isopropylpiperidin-4-yl)-N-(6-(5-methyl-1,3,4-thiadiazol-2-yl)isoquinolin-3-yl)-1H-pyrazole-4-carboxamide] | 169 | – | –
4 | 844 | 641 | 466 | > 10000 | – | – | Cc1ncc(C(=O)Nc2cc3cc(-c4cncn4C)ccc3cn2)n1C [Compound 51, 1,2-Dimethyl-N-(6-(1-methyl-1H-imidazol-5-yl)isoquinolin-3-yl)-1H-imidazole-5-carboxamide] | > 10000 | 10.9 | 6.5

The next lines start with the compound.

SMILES | EC50 [1, 5] [nM] | EC50 [2] [nM] | EC50 (recombinant GSK3β kinase; [6]) [nM] | EC50 [3] [nM] | EC50 (IL-6) [nM] | EC50 [1] [nM] | EC50 (recombinant GSK3β kinase) [nM] | EC50 [4] [nM] | inhibition at 10 µM (IL-6) [%] | inhibition at 10 µM ([4]; read-out: percent inhibition at 10 μM) [%]
Cn1cc(-c2ccc3cnc(NC(=O)c4cnn(C5CCNCC5)c4)cc3c2)nn1 [Compound 29, N-(6-(1-Methyl-1H-1,2,3-triazol-4-yl)isoquinolin-3-yl)-1-(piperidin-4-yl)-1H-pyrazole-4-carboxamide] | 3 | 60 | 230 | 30 | 366 | – | – | 135 | – | –
CCN1CCC(n2cc(C(=O)Nc3cc4cc(-c5cnn(C)c5)ccc4cn3)cn2)CC1 [Compound 6, 1-(1-Ethylpiperidin-4-yl)-N-(6-(1-methyl-1H-pyrazol-4-yl)isoquinolin-3-yl)-1H-pyrazole-4-carboxamide] | 3 | 32 | 1700 | 15 | 129 | – | – | 69 | – | –
CC(C)Cn1cc(C(=O)Nc2cc3cc(-c4cncn4C)ccc3cn2)cn1 [Compound 45, 1-Isobutyl-N-(6-(1-methyl-1H-imidazol-5-yl)isoquinolin-3-yl)-1H-pyrazole-4-carboxamide] | 1 | 111 | 1190 | 55 | 414 | – | – | 88 | – | –
Cn1cc(-c2ccc3cnc(NC(=O)c4cn(C5CCN(CCF)CC5)nn4)cc3c2)cn1 [Compound 13, 1-(1-(2-Fluoroethyl)piperidin-4-yl)-N-(6-(1-methyl-1H-pyrazol-4-yl)isoquinolin-3-yl)-1H-1,2,3-triazole-4-carboxamide] | 5 | 485 | 2080 | 120 | 3390 | – | – | 260 | – | –
Cn1cc(CC(=O)Nc2cc3cc(-c4cncn4C)ccc3cn2)cn1 [Compound 47, N-(6-(1-methyl-1H-imidazol-5-yl)isoquinolin-3-yl)-2-(1-methyl-1H-pyrazol-4-yl)acetamide] | 3 | 607 | 29 | 556 | 388 | – | – | 94 | – | –
[2H]C([2H])([2H])n1cc(-c2ccc3cnc(NC(=O)c4cnn(C5CCNCC5)c4)cc3c2)cn1 [Compound 3, N-(6-(1-(Methyl-d3)-1H-pyrazol-4-yl)isoquinolin-3-yl)-1-(piperidin-4-yl)-1H-pyrazole-4-carboxamide] | – | 38 | – | 23 | 1040 | 3 | > 10000 | 74 | – | –
CC(C)N1CCC(n2cc(C(=O)Nc3cc4cc(-c5cnn(C)c5)ccc4cn3)nn2)CC1 [Compound 14, 1-(1-Isopropylpiperidin-4-yl)-N-(6-(1-methyl-1H-pyrazol-4-yl)isoquinolin-3-yl)-1H-1,2,3-triazole-4-carboxamide] | 6 | 240 | 2750 | 95 | > 10000 | – | – | 410 | 46 | –
CN(C)C1CN(c2ncc(C(=O)Nc3cc4cc(-c5cnn(C)c5)ccc4cn3)s2)C1 [Compound 24, 2-(3-(Dimethylamino)azetidin-1-yl)-N-(6-(1-methyl-1H-pyrazol-4-yl)isoquinolin-3-yl)thiazole-5-carboxamide] | 2 | 1640 | 1760 | 1320 | 3020 | – | – | 2750 | – | –
[2H]C([2H])([2H])n1cc(-c2ccc3cnc(NC(=O)c4cnn(C5CCN(C)CC5)c4)cc3c2)cn1 [Compound 5, N-(6-(1-(Methyl-d3)-1H-pyrazol-4-yl)isoquinolin-3-yl)-1-(1-methylpiperidin-4-yl)-1H-pyrazole-4-carboxamide] | – | 34 | – | 22 | 218 | 2 | 2060 | 84 | – | –
CC(C)n1cc(C(=O)Nc2cc3cc(-c4cncn4C)ccc3cn2)cn1 [Compound 42, 1-Isopropyl-N-(6-(1-methyl-1H-imidazol-5-yl)isoquinolin-3-yl)-1H-pyrazole-4-carboxamide] | 23 | 999 | 9990 | 602 | > 10000 | – | – | 2500 | 37.1 | –
